Source: patent US8580802B2, “Pyrrolo[2,3-D]pyrimidines as inhibitors of Janus kinases” (Vertex Pharmaceuticals Incorporated, priority 2005, dated 2013)

How the values were obtained:
JAK2 = JAK2 (Homo sapiens, UniProt O60674); experiment: JAK2 Inhibition Assay; type: biochemical; conditions: JAK-2 enzyme, 15 μM poly(Glu)4Tyr, 12 μM ATP
In short: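 Radiometric kinase assay with 1 nM JAK2 in pH 7.4 HEPES buffer (10 mM MgCl2, 1 mM DTT, 0.01% BSA), final 15 μM poly(Glu)4Tyr and 12 μM [33P]-ATP. Run 20 min at 25 °C, stopped with TCA; 33P incorporation captured on glass-fibre filters and read by scintillation counting.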

JAK3 = target: T1, JAK3 (Homo sapiens, UniProt P52333); experiment: JAK3 Inhibition Assay; type: biochemical; conditions: 1 nM JAK3, 1 μM poly(Glu)4Tyr, 5 μM ATP, 25° C.; read-out: enzyme inhibition data (Ki) JAK3
T1 sequence (P52333 1-1124): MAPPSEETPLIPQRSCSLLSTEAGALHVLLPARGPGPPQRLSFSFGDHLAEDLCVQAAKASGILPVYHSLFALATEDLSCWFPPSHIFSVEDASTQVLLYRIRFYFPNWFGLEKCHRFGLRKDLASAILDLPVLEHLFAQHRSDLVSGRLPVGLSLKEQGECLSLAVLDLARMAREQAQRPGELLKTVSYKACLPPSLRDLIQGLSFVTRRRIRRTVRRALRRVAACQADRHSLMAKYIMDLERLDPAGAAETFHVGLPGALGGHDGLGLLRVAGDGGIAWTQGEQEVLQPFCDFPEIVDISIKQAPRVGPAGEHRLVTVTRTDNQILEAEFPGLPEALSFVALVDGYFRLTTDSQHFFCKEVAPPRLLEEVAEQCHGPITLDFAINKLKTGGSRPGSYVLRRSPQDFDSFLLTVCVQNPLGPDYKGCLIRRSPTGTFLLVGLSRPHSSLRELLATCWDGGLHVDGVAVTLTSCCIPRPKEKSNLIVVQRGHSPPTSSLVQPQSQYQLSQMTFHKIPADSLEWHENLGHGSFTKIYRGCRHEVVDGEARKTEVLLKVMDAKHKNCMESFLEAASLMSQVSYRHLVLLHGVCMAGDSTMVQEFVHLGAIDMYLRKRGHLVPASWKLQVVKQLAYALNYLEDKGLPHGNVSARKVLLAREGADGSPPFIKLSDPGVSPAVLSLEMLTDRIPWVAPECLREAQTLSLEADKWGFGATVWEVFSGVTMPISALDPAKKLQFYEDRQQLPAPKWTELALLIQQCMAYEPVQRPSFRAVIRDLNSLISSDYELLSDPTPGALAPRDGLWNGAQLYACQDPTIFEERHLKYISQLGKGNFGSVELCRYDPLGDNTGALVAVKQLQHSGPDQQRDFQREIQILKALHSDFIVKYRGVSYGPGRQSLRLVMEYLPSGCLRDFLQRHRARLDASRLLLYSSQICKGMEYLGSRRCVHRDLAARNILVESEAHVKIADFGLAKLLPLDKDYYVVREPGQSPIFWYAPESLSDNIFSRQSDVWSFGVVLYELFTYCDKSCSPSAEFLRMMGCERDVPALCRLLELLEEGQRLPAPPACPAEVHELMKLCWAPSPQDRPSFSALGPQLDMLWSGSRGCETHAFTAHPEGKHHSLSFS
In short: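 Radiometric ^33P incorporation into poly(Glu)4Tyr (1 μM) by 1 nM human JAK3 at 5 μM ATP, in HEPES pH 7.4 buffer with MgCl2, DTT and BSA. Reaction ran 20 min at 25° C, stopped with TCA, then filtered before scintillation counting.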

Chain of JAK2 (O60674 whole entry): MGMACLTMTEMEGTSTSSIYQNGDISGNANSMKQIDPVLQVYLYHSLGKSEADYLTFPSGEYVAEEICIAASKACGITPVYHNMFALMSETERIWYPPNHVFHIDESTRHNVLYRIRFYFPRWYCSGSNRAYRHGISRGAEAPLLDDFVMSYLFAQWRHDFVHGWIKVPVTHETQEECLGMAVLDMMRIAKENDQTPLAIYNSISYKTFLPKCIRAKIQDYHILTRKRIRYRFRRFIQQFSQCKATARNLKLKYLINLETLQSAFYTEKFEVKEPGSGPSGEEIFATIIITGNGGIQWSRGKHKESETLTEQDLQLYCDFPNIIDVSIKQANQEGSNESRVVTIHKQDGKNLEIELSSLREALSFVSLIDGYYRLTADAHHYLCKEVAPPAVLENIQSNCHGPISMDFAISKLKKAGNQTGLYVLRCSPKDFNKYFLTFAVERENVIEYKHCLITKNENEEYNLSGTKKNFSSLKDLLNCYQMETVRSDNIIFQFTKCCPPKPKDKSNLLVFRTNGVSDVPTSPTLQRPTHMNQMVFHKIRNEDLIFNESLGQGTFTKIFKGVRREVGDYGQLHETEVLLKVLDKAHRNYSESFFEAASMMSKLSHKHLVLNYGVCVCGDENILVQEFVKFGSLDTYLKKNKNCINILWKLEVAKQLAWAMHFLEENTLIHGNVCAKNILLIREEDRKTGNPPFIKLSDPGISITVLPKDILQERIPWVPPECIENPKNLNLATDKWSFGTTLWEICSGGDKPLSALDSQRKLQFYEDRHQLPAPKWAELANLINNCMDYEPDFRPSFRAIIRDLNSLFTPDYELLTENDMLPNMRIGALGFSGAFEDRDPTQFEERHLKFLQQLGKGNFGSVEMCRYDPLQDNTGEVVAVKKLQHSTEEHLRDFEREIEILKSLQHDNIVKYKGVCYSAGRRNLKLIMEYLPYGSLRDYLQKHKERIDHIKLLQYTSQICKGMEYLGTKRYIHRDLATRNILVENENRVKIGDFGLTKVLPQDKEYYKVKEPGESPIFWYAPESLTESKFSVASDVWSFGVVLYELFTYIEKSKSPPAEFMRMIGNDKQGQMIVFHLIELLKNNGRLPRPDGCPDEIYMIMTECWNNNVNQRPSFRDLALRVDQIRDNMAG

C[C@H](Nc1cc(-c2nnn[nH]2)cc(-c2c[nH]c3ncncc23)n1)C(=O)NCC(F)(F)F [Compound 20, (S)-2-(6-(7H-pyrrolo[2,3-d]pyrimidin-5-yl)-4-(1H-tetrazol-5-yl)pyridin-2-ylamino)-N-(2,2,2-trifluoroethyl)propanamide]
Ki (JAK2): 500 to 5000 nM
Ki (JAK3): < 500 nM
